The values that follow come from patent US4447610A, “10-Substituted 5-cyanomethylene-dibenzo[A,B]-cycloheptenes, their preparations, and therapeutic agents containing these compounds” (BASF Aktiengesellschaft, priority 1980, dated 1984).

In data set [1] the test system is death from physostigmine. Description: Anticholinergic action: protection against death from physostigmine (antiphysostigmine test). In kind it is in vivo, female NMRI mice. Particulars: Mus musculus; mice, oral, 30 min before physostigmine 0.825 mg/kg s.c.; read-out: Anticholinergic action ED 50%. Here is the method:
4. Anticholinergic action
Groups of 10 female NMRI mice are given physostigmine subcutaneously, at a lethal dose (0.825 mg/kg). The test substances are administered orally 30 minutes before the administration of physostigmine.
The ED 50% is determined as the dose of compound which protects 50% of the animals against death from physostigmine.

The subject of data set [2] is orientation hypermotility. Description: Sedative action: decrease in orientation hypermotility of mice. It is filed as in vivo, female NMRI mice. Particulars: for ED50: Mus musculus, 0.5 h, mice, oral, 30 min after administration, measured for 30 min, read-out: Sedative action ED 50%; for Sedative action R.A. (relative activity): clozapine = 1.00; for sedative-hypnotic effects (in words): compared with clozapine and perlapine. Here is the method: 4-8 groups of 3 female NMRI mice are given the compound orally. The orientation hypermotility induced by a new environment is determined photoelectrically, 30 minutes after administration of the compound, for a period of 30 minutes.
The ED50% is the dose which produces a decrease in orientation hypermotility by 50%, compared to control animals treated with placebo.

The nature of data set [3]: Acute toxicity. The settings on record: mouse, in vivo, ip; mice, intraperitoneal; read-out: Toxicity LD 50. Here is the method: Groups of 5-10 female NMRI mice are given the compounds intraperitoneally. The LD 50 is determined as the dose after which 50% of the treated animals die.
The test system of data set [4] is tryptamine-induced clonic front paw movements. Description: Antitryptamine action: inhibition of tryptamine-induced front paw movements. It is filed as in vivo, rats. The settings on record: for ED50: Rattus norvegicus, ip, rats, intraperitoneal, 30 min before tryptamine.HCl 16 mg/kg i.v., read-out: Antitryptamine action ED 50%; for Antitryptamine action R.A. (relative activity): clozapine = 1.00. The procedure:
3. Antitryptamine action Tryptamine.HCl (16 mg/kg administered intravenously) regularly causes the following symptoms in rats: clonic front paw movements, back-arching and retropulsion, as well as mandibular movements (Tedeschi et al., J. Pharmacol. Exp. Ther. 126 (1959), 223). The test substances are administered intraperitoneally 30 minutes before the tryptamine. […] The mean inhibitory dose (ED 50%) is determined, by means of Probit analysis, as the dose which prevents the symptom in half the animals.

The subject of data set [5] is tonic extensor reflex on the rabbit gastrocnemius. Briefly: Muscle-relaxing action: tonic extensor reflex on the rabbit gastrocnemius. It is filed as in vivo. The settings on record: for Muscle relaxation R.A. (relative activity): clozapine = 1.00; for muscle-relaxing properties (in words): rabbit, in vivo. An excerpt: 2. Muscle-relaxing action The measurement is based on quantifying the tonic extensor reflex on the rabbit gastrocnemius (Teschendorf et al., Arch. Pharmacol. exp. Path. 266 (1970), 462). The rabbit is fixed in a special apparatus which permits bending the paw at the talocalcanean joint in a defined and reproducible manner. As a result of this bending, a tonic extensor reflex is triggered in the […]. The electrical activity of the muscle during contraction is registered and the individual pulses are counted. The extension (duration 5 s) is repeated at intervals of one minute. After a constant number of pulses has been reached (constituting the control value), the test substance is administered intravenously. The number of pulses after administration is related to the previous value. For each dose investigated, 4-6 animals are used. The ED 50% is the dose which reduces the muscle activity to half, based on the initial value.

For the compound `CCN1CCN(C2=Cc3ccccc3C(=CC#N)c3ccccc32)CC1` (mixture of isomers) [Example 5, cis,trans-5-Cyanomethylene-10-(4-ethyl-piperazin-1-yl)-dibenzo[a,d]-cycloheptene], the ED50 in data set [1] was over 21.5 mg/kg. For the same compound, in data set [2], the ED50 worked out at 1.38 mg/kg and the “Sedative action R.A. (relative activity)” value is listed as 3.43. Also, the LD50 in data set [3] turned out to be 287 mg/kg. In data set [4], the ED50 amounted to 18.6 mg/kg and the “Antitryptamine action R.A. (relative activity)” value is reported as 0.27. Also, in data set [5], the “Muscle relaxation R.A. (relative activity)” value worked out at 3.54.

Consider `N#CC=C1c2ccccc2C=C(N2CCN(CCO)CC2)c2ccccc21` (mixture of isomers) [Example 7, cis,trans-5-Cyanomethylene-10-(N-β-hydroxyethyl-piperazin-1-yl)-dibenzo[a,d]-cycloheptene.1/2 H2 O], for which the ED50 in data set [1] is over 21.5 mg/kg. For the same compound, in data set [2], the ED50 came out at 0.97 mg/kg and the “Sedative action R.A. (relative activity)” value is reported as 4.89. For the same compound, the LD50 in data set [3] is over 100 mg/kg. In data set [5], the “Muscle relaxation R.A. (relative activity)” value stood at 3.54.

For `C[N+]1([O-])CCN(C2=Cc3ccccc3C(=CC#N)c3ccccc32)CC1` (mixture of isomers) [Example 12, cis,trans-5-Cyanomethylene-10-(4-methyl-4-oxy-piperazin-1-yl)-dibenzo[a,d]-cycloheptene.21/2 H2 O], the ED50 was over 21.5 mg/kg in data set [1], 1.4 mg/kg in data set [2] and 12.5 mg/kg in data set [4]. Moreover, the “Sedative action R.A. (relative activity)” value in data set [2] is on record as 3.39. For the same compound, the LD50 in data set [3] was over 100 mg/kg. Also, in data set [4], the “Antitryptamine action R.A. (relative activity)” value came to 0.40. Further, in data set [5], the “Muscle relaxation R.A. (relative activity)” value came out at 0.46.

As to `CN1CCN(C2=Nc3cc(Cl)ccc3Nc3ccccc32)CC1` [Clozapine, reference compound], the ED50 was 14.1 mg/kg in data set [1] and 5 mg/kg in data set [4]. Also, the “Sedative action R.A. (relative activity)” value in data set [2] was 1.00. Moreover, the “Antitryptamine action R.A. (relative activity)” value in data set [4] came to 1.00.

Take `CN1CCN(C2=Cc3ccccc3C(=CC#N)c3ccccc32)CC1` [Example 1, cis- and trans-5-Cyanomethylene-10-(4-methyl-piperazin-1-yl)-dibenzo[a,d]-cycloheptene]: the ED50 in data set [1] is over 10 mg/kg. Besides, in data set [2], the ED50 came out at 0.96 mg/kg and the “Sedative action R.A. (relative activity)” value is 4.94. Moreover, the LD50 in data set [3] amounted to 324 mg/kg. Further, the “Muscle relaxation R.A. (relative activity)” value in data set [5] was 7.19.

Regarding `CN1CCN(C2=Cc3ccccc3/C(=C/C#N)c3ccccc32)CC1` [Example 1a], the ED50 in data set [1] is over 10 mg/kg. Also, in data set [2], the ED50 is 0.8 mg/kg, the “sedative-hypnotic effects (in words)” value is reported as “particularly pronounced” and the “Sedative action R.A. (relative activity)” value came out at 5.92. In data set [4], the ED50 was found to be 8.6 mg/kg and the “Antitryptamine action R.A. (relative activity)” value came out at 0.58. Also, in data set [5], the “muscle-relaxing properties (in words)” value is “particularly pronounced” and the “Muscle relaxation R.A. (relative activity)” value is given as 54.12.

`CN1CCN(C2=Cc3cc(Cl)ccc3C(=CC#N)c3ccccc32)CC1` [Example 4, cis- and trans-2-Chloro-5-cyanomethylene-10-(4-methylpiperazin-1-yl)-dibenzo[a,d]-cycloheptene]: the ED50 in data set [1] was over 21.5 mg/kg. In data set [2], the ED50 was 2 mg/kg and the “Sedative action R.A. (relative activity)” value amounted to 2.37. The “Muscle relaxation R.A. (relative activity)” value in data set [5] came to 10.00.

Regarding `CN1CCN(C2=Cc3cc(Cl)ccc3/C(=C/C#N)c3ccccc32)CC1` [Example 4a, cis-5-cyanomethylene-2-chloro-10-(4-methyl-piperazin-1-yl)-dibenzo[a,d]-cycloheptene], the ED50 in data set [1] was over 21.5 mg/kg. In data set [2], the ED50 amounted to 0.44 mg/kg, the “sedative-hypnotic effects (in words)” value is reported as “particularly pronounced” and the “Sedative action R.A. (relative activity)” value was 10.77. In data set [4], the ED50 amounted to 0.7 mg/kg and the “Antitryptamine action R.A. (relative activity)” value was 7.14. Further, the “antimonaminergic action, tryptamine antagonism (in words)” value in data set [4] (compared with reference substances) is “markedly more pronounced”. For the same compound, in data set [5], the “muscle-relaxing properties (in words)” value is on record as “particularly pronounced” and the “Muscle relaxation R.A. (relative activity)” value is 10.00.

Take `CCN1CCN(C2=Cc3ccccc3/C(=C/C#N)c3ccccc32)CC1` [Example 5a, cis-5-cyanomethylene-10-(4-ethyl-piperazin-1-yl)-dibenzo[a,d]-cycloheptene]: the ED50 in data set [1] was over 21.5 mg/kg. In addition, in data set [2], the ED50 came to 1 mg/kg and the “Sedative action R.A. (relative activity)” value is on record as 4.74. The LD50 in data set [3] was over 100 mg/kg. Further, in data set [4], the ED50 was 11.2 mg/kg and the “Antitryptamine action R.A. (relative activity)” value worked out at 0.45. Moreover, the “Muscle relaxation R.A. (relative activity)” value in data set [5] was determined as 4.60.

As for `CN1CCN(C2=Nc3ccccc3Cc3ccccc32)CC1` [Perlapine, reference compound], in data set [1], the ED50 was over 21.5 mg/kg. Besides, in data set [4], the ED50 worked out at 4.1 mg/kg and the “Antitryptamine action R.A. (relative activity)” value is reported as 1.22.
